Assay results published in patent US5169863A, “Hypersphyxia-causing methods” (K.K. Ueno Seiyaku Oyo Kenkyujo, priority 1988, dated 1992).

How the values were obtained:
[1] = recovery of blood pressure and heart rate of rats in hemorrhage shock; type: in vivo, Wister male rats; conditions: intravenous, dehematized rats
Procedure: (Recovery of blood pressure and heart rate of rats in hemorrhage shock)
Wister male rats (8 weeks old) were applied to anesthesia by subcutaneous injection with 1.5 g/kg of urethane. The blood pressure and heart rate were determined according to the same manner as in Example 1.
The rats were kept for 60 minutes in a room after a blood corresponding to 1.5% of the weight was removed.
13,14-dihydro-6,15-diketo-19-methyl-PGE1 ethyl ester (compound number 15) was dissolved in Ringer's solution (0.1 ml), and the solution was intravenously administered into the above dehematized rat. Ringer's solution was administered to a control group.
The recovery rates of the blood pressure and heart rate were obtained assuming the value at 60 minutes after dehematizing being 0% and the value before dehematizing being 100% respectively. In these FIGS. (1), (2) and (3) represent a dose of 1 mg/kg, dose of 0.5 mg/kg and control respectively.
The same procedure as the above except that the compounds of (7), (18) and (22) were used instead of the compound (15) was applied, and the effects are observed, the results of which are also shown in Table 3.

[2] = changing rate of blood pressure and heart rate by intravenous injection in anesthetized rats; type: in vivo, Wister male rats; conditions: for change in vivo at 1 mg/kg: Rattus norvegicus; for blood pressure effect (in words): Example 1 conclusion
Procedure: (blood pressure, heart rate increasing action by intravenous injection) Wister male rats (8 weeks old) were used as test animals. The rats were applied to anesthesia by intraperitoneal administration with 1.25 g/kg of urethane. The blood pressure was determined by inserting a polyethylene tube into a femoral artery, which was connected with a pressure transducer. The heart rate was determined from R wave of electrocardiograms (ECG) induced by standard limb lead II with a tachometer. Each test compound was dissolved in ethanol and intravenously administered to rats in 1 mg/kg diluted with Ringer's solution just before use. The maximum concentration of ethanol was 2 percent. An ethanol-containing Ringer without any test compound was used as a control to confirm the influence of the ethanol in each experiment. Each changing rate (%) in the blood pressure and heart rate before and after administration was determined, and the average of 3-4 experiments was shown in Table 1. Changing rates of blood pressure and heart rate were determined in the same manner as described in Example 1 except that the test compounds 60, 61 and 62 were used in different concentrations instead of the test compounds 1-55.

[3] = progressing a breath (change rate of breath rate); type: in vivo, Wister male rats; conditions: Rattus norvegicus, iv, tail vein, rats
Procedure: Wister male rats (8 weeks old) were applied to anesthesia by intraperitoneal administration with 1.25 g/kg of urethane. A pick-up for breath was fixed on a top of a rat's nose, and the breath curve was recorded on a polygraph while the breath rate was counted with a tachometer.
Each test compound was dissolved in ethanol and administered to rats through a tale vein in 1 mg/kg as diluted with Ringer's solution just before use. The maximum concentration of ethanol was 2 percent. Ringers solution containing ethanol but not containing test compound was administered at every experiment as a control. The change rates (%) of the breath rate before and after administration were determined, and evaluated as progressing activity of breath.

acute toxicity LD50 = type: in vivo; conditions: mouse, in vivo; PO, male mice; read-out: LD50
[4] = Table 1, read-out: changing rate of blood pressure
[5] = Table 1, read-out: changing rate of heart rate

Compound | recovering of blood pressure % ([1]; 0.5 mg/kg) [%] | recovering of heart rate % ([1]; 0.5 mg/kg) [%] | recovering of blood pressure % ([1]; 1.0 mg/kg) [%] | recovering of heart rate % ([1]; 1.0 mg/kg) [%] | change in vivo at 1 mg/kg [2, 4] [%] | change in vivo at 1 mg/kg [3] [%] | change in vivo at 1 mg/kg [2, 5] [%] | LD50 (acute toxicity LD50) [mg/kg] | blood pressure effect (in words) [2]
CCCCCC(=O)CC[C@H]1[C@H](O)CC(=O)[C@@H]1CC(=O)CCCCC(=O)OCC [Compound 7, 13,14-dihydro-6,15-diketo-PGE1 ethyl ester] | 38 | 46 | 63 | 62 | 5 | 31 |  |  | 
CCCCCC(=O)CC[C@H]1[C@H](C)CC(=O)[C@@H]1CC(=O)CCCCC(=O)OCC [Compound 18, 13,14-dihydro-6,15-diketo-11-dehydroxy-11R-methyl-PGE1 ethyl ester] | 87 | 100 | 119 | 100 | 18 | 28 | 17 |  | 
CCCCCC(=O)CC[C@H]1[C@H](O)CC(=O)[C@@H]1C/C=C\CC=CC(=O)OC [Compound 27, 13,14-dihydro-15-keto-Δ^2 -PGE2-methyl ester] |  |  |  |  | 6 | 11 | 21 |  | 
CCCCCC(=O)CC[C@H]1[C@H](O)CC(=O)[C@@H]1C/C=C\CC(C)CC(=O)OC (stereo partly drawn) [Compound 28, 13,14-dihydro-15-keto-3R,S-methyl-PGE2 methyl ester] |  |  |  |  | 12 | 40 | 33 |  | 
CCCCCC(=O)CC[C@H]1[C@H](O)CC(=O)[C@@H]1C/C=C\CC(C)CC(=O)OCC (stereo partly drawn) [Compound 29, 13,14-dihydro-15-keto-3R,S-methyl-PGE2 ethyl ester] |  |  |  |  | 7 | 11 | 17 |  | 
CCCCC(C)C(=O)CC[C@H]1[C@H](O)CC(=O)[C@@H]1C/C=C\CCCC(=O)OC (stereo partly drawn) [Compound 30, 13,14-dihydro-15-keto-16R,S-methyl-PGE2 methyl ester] |  |  |  |  | 14 | 61 | 29 |  | 
CCCCC(C)C(=O)CC[C@H]1[C@H](O)CC(=O)[C@@H]1C/C=C\CCCC(=O)OCC (stereo partly drawn) [Compound 31, 13,14-dihydro-15-keto-16R,S-methyl-PGE2 ethyl ester] |  |  |  |  | 14 | 40 | 46 |  | 
CCCCC(C)C(=O)CC[C@H]1[C@H](O)CC(=O)[C@@H]1C/C=C\CC(C)CC(=O)OC (stereo partly drawn) [Compound 32, 13,14-dihydro-15-keto-3R,S-16R,S-dimethyl-PGE2 methyl ester] |  |  |  |  | 14 | 41 | 30 |  | 
CCCCC(C)(C)C(=O)CC[C@H]1[C@H](O)CC(=O)[C@@H]1C/C=C\CCCC(=O)OC [Compound 33, 13,14-dihydro-15-keto-16,16-dimethyl-PGE2 methyl ester] |  |  |  |  | 20 | 40 | 28 |  | 
CCCCC(C)(C)C(=O)CC[C@H]1[C@H](O)CC(=O)[C@@H]1C/C=C\CCCC(=O)OCC [Compound 34, 13,14-dihydro-15-keto-16,16-dimethyl-PGE2 ethyl ester] |  |  |  |  | 6 | 31 | 29 |  | 
CCCCC(O)C(=O)CC[C@H]1[C@H](O)CC(=O)[C@@H]1C/C=C\CCCC(=O)OCC (stereo partly drawn) [Compound 35, 13,14-dihydro-15-keto-16R,S-hydroxy-PGE2 ethyl ester] |  |  |  |  | 17 | 37 | 27 |  | 
CCCCC(F)C(=O)CC[C@H]1[C@H](O)CC(=O)[C@@H]1C/C=C\CCCC(=O)O (stereo partly drawn) [Compound 36, 13,14-dihydro-15-keto-16R,S-fluoro-PGE2] |  |  |  |  | 33 |  | 32 | > 500 | 
CCCCC(F)C(=O)CC[C@H]1[C@H](O)CC(=O)[C@@H]1C/C=C\CCCC(=O)OCC (stereo partly drawn) [Compound 38, 13,14-dihydro-15-keto-16R,S-fluoro-PGE2 ethyl ester] |  |  |  |  | 14 | 47 | 15 |  | 
CCCCC(F)C(=O)CC[C@H]1[C@H](C)CC(=O)[C@@H]1C/C=C\CCCC(=O)OCC (stereo partly drawn) [Compound 40, 13,14-dihydro-15-keto-16R,S-fluoro-11-dehydroxy-11R-methyl-PGE2 ethyl ester] |  |  |  |  | 17 | 16 | 27 |  | 
CCCCCC(=O)CC[C@H]1[C@H](C)CC(=O)[C@@H]1C/C=C\CCCC(=O)OCC [Compound 41, 13,14-dihydro-15-keto-11-dehydroxy-11R-methylPGE2 ethyl ester] |  |  |  |  | 11 | 20 | 26 |  | 
CCC[C@H](C)CC(=O)CC[C@H]1[C@H](O)CC(=O)[C@@H]1C/C=C\CCCC(=O)OC [Compound 42, 13,14-dihydro-15-keto-17S-methyl-PGE2 methyl ester] |  |  |  |  | 12 | 28 | 7 |  | 
COC(=O)CCC/C=C\C[C@H]1C(=O)C[C@@H](O)[C@@H]1CCC(=O)CCCC(C)C [Compound 43, 13,14-dihydro-15-keto-19-methyl-PGE2 methyl ester] |  |  |  |  | 14 | 41 | 45 |  | 
CCOC(=O)CCC/C=C\C[C@H]1C(=O)C[C@@H](O)[C@@H]1CCC(=O)CCCC(C)C [Compound 44, 13,14-dihydro-15-keto-19-methyl-PGE2 ethyl ester] |  |  |  |  | 20 | 16 | 30 |  | 
COCCCCCC(=O)CC[C@H]1[C@H](O)CC(=O)[C@@H]1C/C=C\CCCC(=O)OC [Compound 45, 13,14-dihydro-15-keto-20-methoxy-PGE2 methyl ester] |  |  |  |  | 2 | 10 | 4 |  | 
COCCCCCC(=O)CC[C@H]1[C@H](O)CC(=O)[C@@H]1C/C=C\CC=CC(=O)OC [Compound 46, 13,14-dihydro-15-keto-20-methoxy-Δ^2 -PGE2 methyl ester] |  |  |  |  | 5 | 10 | 13 |  | 
COCCCCCC(=O)CC[C@H]1[C@H](O)CC(=O)[C@@H]1C/C=C\CC(C)CC(=O)OC (stereo partly drawn) [Compound 47, 13,14-dihydro-15-keto-3R,S-methyl-20-methoxy-PGE2 methyl ester] |  |  |  |  | 1 | 17 | 4 |  | 
CC(C)=CCCCCC(=O)CC[C@H]1[C@H](O)CC(=O)[C@@H]1C/C=C\CCCC(=O)O [Compound 49, 13,14-dihydro-15-keto-20-isopropylidene-PGE2] |  |  |  |  | 2 | 18 | 3 |  | 
COC(=O)CCC/C=C\C[C@H]1C(=O)C[C@@H](O)[C@@H]1CCC(=O)CCCCC=C(C)C [Compound 50, 13,14-dihydro-15-keto-20-isopropylidene-PGE2 methyl ester] |  |  |  |  | 2 | 18 | 5 |  | 
CCCCCCCC(=O)CC[C@H]1[C@H](O)CC(=O)[C@@H]1C/C=C\CCCC(=O)OC [Compound 51, 13,14-dihydro-15-keto-20-ethyl-PGE2 methyl ester] |  |  |  |  | 1 | 49 | 14 |  | 
CCCCC[C@H](O)/C=C/[C@H]1[C@H](O)CC(=O)[C@@H]1C/C=C\CCCC(=O)O [Compound 57, PGE2, reference compound] |  |  |  |  | -39 | 55 | 14 |  | blood pressure decreasing effect
CCCCC[C@H](O)/C=C/[C@H]1[C@H](O)CC(=O)[C@@H]1C/C=C\CCCC(=O)OC [Compound 58, PGE2 methyl ester, reference compound] |  |  |  |  | -11 | 35 | 33 |  | blood pressure decreasing effect
